# Data reported in ChEMBL document CHEMBL1201862, “PubChem BioAssay data set” (2004).
# Several values for one entry are separate records, joined by “and”; a condition that tells them apart may be missing. Equal values may be shown once.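 Each compound was tested at five concentrations against cells in 96-well plates for 48 hours. GI50 is the concentration that inhibits growth by half.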 Activity calls are given as the source filed them. Cut-off read from the data, not from the text of the source: active = GI50 up to about 1.1 µM and inactive = higher.
# What was measured:
# Assay in all cases: NCI tumour cell line growth inhibition, 48 h
# Malme-3M = system: Malme-3M
# SNB-19 = system: SNB-19
# CAKI-1 = system: CAKI-1
# RPMI-8226 = system: RPMI-8226
# SK-MEL-28 = system: SK-MEL-28
# NCI-H23 = system: NCI-H23
# LOX IMVI = system: LOX IMVI
# MDA-MB-231 = system: MDA-MB-231
# M14 = system: M14
# T47D = system: T47D
# PC-3 = system: PC-3
# COLO 205 = system: COLO 205
# ACHN = system: ACHN
# RXF 393 = system: RXF 393
# DU-145 = system: DU-145
# NCI-H226 = system: NCI-H226
# OVCAR-4 = system: OVCAR-4
# NCI-H460 = system: NCI-H460
# OVCAR-3 = system: OVCAR-3
# HOP-92 = system: HOP-92
SMILES,GI50 (Malme-3M),GI50 (SNB-19),GI50 (CAKI-1),GI50 (RPMI-8226),GI50 (SK-MEL-28),GI50 (NCI-H23),GI50 (LOX IMVI),GI50 (MDA-MB-231),GI50 (M14),GI50 (T47D),GI50 (PC-3),GI50 (COLO 205),GI50 (ACHN),GI50 (RXF 393),GI50 (DU-145),GI50 (NCI-H226),GI50 (OVCAR-4),GI50 (NCI-H460),GI50 (OVCAR-3),GI50 (HOP-92)
Nc1nc2c(c(=O)[nH]1)N=C(COP(=O)(O)OP(=O)(O)O)CN2,> 100 µM (inactive),> 100 µM (inactive),> 100 µM (inactive),> 100 µM (inactive),> 100 µM (inactive),> 100 µM (inactive),> 100 µM (inactive),> 100 µM (inactive),> 100 µM (inactive),> 100 µM (inactive),> 100 µM (inactive),> 100 µM (inactive),> 100 µM (inactive),> 100 µM (inactive),> 100 µM (inactive),> 100 µM (inactive),–,–,–,–
CN1CN(c2ccccc2)C2(CCN(CCCSc3ccccc3NC(=O)/C=C/c3ccccc3)CC2)C1=O,2.15 µM (inactive),5.27 µM (inactive),9.91 µM (inactive),1.89 µM (inactive),2.11 µM (inactive),4.61 µM (inactive),2.25 µM (inactive),1.73 µM (inactive),1.71 µM (inactive),4.01 µM (inactive),5.45 µM (inactive),2.01 µM (inactive),2.4 µM (inactive),7.55 µM (inactive),3.82 µM (inactive),2.24 µM (inactive),3.59 µM (inactive),4.05 µM (inactive),3.18 µM (inactive),–
CC12CCC(CC1=O)C2(C)CCC(N)=O (stereo unspecified),> 100 µM (inactive),> 100 µM (inactive),> 100 µM (inactive),> 100 µM (inactive),> 100 µM (inactive),> 100 µM (inactive),–,> 100 µM (inactive),> 100 µM (inactive),> 100 µM (inactive),> 100 µM (inactive),> 100 µM (inactive),> 100 µM (inactive),> 100 µM (inactive),> 100 µM (inactive),> 100 µM (inactive),> 100 µM (inactive),–,> 100 µM (inactive),–
CC(=O)N(C(C)=O)n1c(Cc2ccc(Cl)cc2)nn(C(C)=O)c1=O,> 100 µM (inactive),> 100 µM (inactive),–,> 100 µM (inactive),> 100 µM (inactive),> 100 µM (inactive),> 100 µM (inactive),> 100 µM (inactive),> 100 µM (inactive),> 100 µM (inactive),> 100 µM (inactive),> 100 µM (inactive),> 100 µM (inactive),> 100 µM (inactive),> 100 µM (inactive),> 100 µM (inactive),> 100 µM (inactive),> 100 µM (inactive),> 100 µM (inactive),–
CC1(C2(C)OC(=O)c3ccccc32)OC(=O)c2ccccc21 (stereo unspecified),–,> 100 µM (inactive),> 100 µM (inactive),> 100 µM (inactive),> 100 µM (inactive),> 100 µM (inactive),> 100 µM (inactive),> 100 µM (inactive),> 100 µM (inactive),> 100 µM (inactive),> 100 µM (inactive),> 100 µM (inactive),> 100 µM (inactive),> 100 µM (inactive),> 100 µM (inactive),> 100 µM (inactive),> 100 µM (inactive),> 100 µM (inactive),> 100 µM (inactive),> 100 µM (inactive)
COc1ccc(-c2[nH]c(=O)n(C3OC(CO)C(O)C(O)C3O)c(=O)c2C#N)cc1 (stereo unspecified),–,> 100 µM (inactive),> 100 µM (inactive),> 100 µM (inactive),> 100 µM (inactive),> 100 µM (inactive),–,> 100 µM (inactive) and 81.5 µM (inactive),> 100 µM (inactive),> 100 µM (inactive),> 100 µM (inactive),> 100 µM (inactive),> 100 µM (inactive),> 100 µM (inactive),> 100 µM (inactive),> 100 µM (inactive),> 100 µM (inactive),> 100 µM (inactive),> 100 µM (inactive),> 100 µM (inactive)
Cc1cc2[nH]c3c(C#N)c4c(c(=O)n3c2cc1C)CCCC4,> 100 µM (inactive),31 µM (inactive),> 100 µM (inactive),–,> 100 µM (inactive),> 100 µM (inactive),> 100 µM (inactive),> 100 µM (inactive),14.5 µM (inactive),> 100 µM (inactive),> 100 µM (inactive),> 100 µM (inactive),72.1 µM (inactive),–,> 100 µM (inactive),> 100 µM (inactive),> 100 µM (inactive),> 100 µM (inactive),> 100 µM (inactive),87.7 µM (inactive)
S=C1CCSc2c(ccc3ccccc23)N1,> 100 µM (inactive),95.5 µM (inactive),> 100 µM (inactive),–,> 100 µM (inactive),> 100 µM (inactive),> 100 µM (inactive),> 100 µM (inactive),> 100 µM (inactive),70.5 µM (inactive),41 µM (inactive),> 100 µM (inactive),> 100 µM (inactive),0.512 µM (active),> 100 µM (inactive),> 100 µM (inactive),46.7 µM (inactive),71.8 µM (inactive),> 100 µM (inactive),–
COC(=O)C1=C(O)C(C(=O)OC)[C@]2(O)[C@H](C(=O)OC)[C@H]1C[C@@H](c1ccc(OC)c(OC)c1)[C@H]2C(=O)OC (stereo partly specified),–,14.6 µM (inactive),25.8 µM (inactive),3.27 µM (inactive),19.2 µM (inactive),19.8 µM (inactive),13.4 µM (inactive),34.2 µM (inactive),12.3 µM (inactive),15.9 µM (inactive),25.4 µM (inactive),17.9 µM (inactive),25.8 µM (inactive),14.3 µM (inactive),19.9 µM (inactive),4.79 µM (inactive),29.6 µM (inactive),14.7 µM (inactive),16.5 µM (inactive),21.2 µM (inactive)
Cn1c2ccccc2c2cc(N3CCCC3)c3c(c21)C(=O)N(c1ccccc1)C3=O,> 100 µM (inactive),> 100 µM (inactive),–,> 100 µM (inactive),> 100 µM (inactive),> 100 µM (inactive),> 100 µM (inactive),66.4 µM (inactive),> 100 µM (inactive),62.1 µM (inactive),> 100 µM (inactive),> 100 µM (inactive),> 100 µM (inactive),32.5 µM (inactive),> 100 µM (inactive),47 µM (inactive),38.9 µM (inactive),> 100 µM (inactive),> 100 µM (inactive),–
COC(=O)[C@@H](Cc1ccccc1)NNC(=O)OC(C)(C)C,> 100 µM (inactive),–,–,> 100 µM (inactive),> 100 µM (inactive),> 100 µM (inactive),> 100 µM (inactive),> 100 µM (inactive),–,> 100 µM (inactive),> 100 µM (inactive),> 100 µM (inactive),> 100 µM (inactive),> 100 µM (inactive),> 100 µM (inactive),–,> 100 µM (inactive),> 100 µM (inactive),> 100 µM (inactive),–
CC(CO)C1=CC(C#CCOCc2ccccc2)N(C(=O)Oc2ccccc2)c2ccccc21 (stereo unspecified),–,32.5 µM (inactive),18.7 µM (inactive),13.1 µM (inactive),54.5 µM (inactive),8.89 µM (inactive),33.5 µM (inactive),39.6 µM (inactive),17.1 µM (inactive),3.76 µM (inactive),14.4 µM (inactive),15.1 µM (inactive),6.9 µM (inactive),3.33 µM (inactive),57.5 µM (inactive),40.7 µM (inactive),3.48 µM (inactive),18 µM (inactive),9.35 µM (inactive),7.69 µM (inactive)
CC(C)(CCCCC(C)(C)[N+](C)(C)C)[N+](C)(C)C,–,> 100 µM (inactive),–,> 100 µM (inactive),> 100 µM (inactive),–,–,> 100 µM (inactive),> 100 µM (inactive),> 100 µM (inactive),> 100 µM (inactive),> 100 µM (inactive),> 10 µM (inactive),–,–,–,> 100 µM (inactive),> 100 µM (inactive),–,–
C[N+](C)(CCNc1ccc(NCC[N+](C)(C)Cc2ccc([N+](=O)[O-])cc2)c2c1C(=O)c1ccccc1C2=O)Cc1ccc([N+](=O)[O-])cc1,> 100 µM (inactive),> 100 µM (inactive),> 100 µM (inactive),–,–,> 100 µM (inactive),> 100 µM (inactive),> 100 µM (inactive),> 100 µM (inactive),> 100 µM (inactive),> 100 µM (inactive),> 100 µM (inactive),> 100 µM (inactive),–,> 100 µM (inactive),> 100 µM (inactive),> 100 µM (inactive),> 100 µM (inactive),> 100 µM (inactive),> 100 µM (inactive)
O=C1N[C@H]2[C@H](O)[C@H](O)[C@@H](O)[C@H](O)[C@@H]2c2cc3c(c(O)c21)OCO3 [PANCRATISTATIN],0.0352 µM (active),0.0301 µM (active),0.0331 µM (active),0.0778 µM (active),0.0414 µM (active),0.0445 µM (active),0.0307 µM (active),0.0344 µM (active),0.262 µM (active),0.0288 µM (active),–,0.0288 µM (active),0.673 µM (active),0.0434 µM (active),0.0306 µM (active),0.0375 µM (active),0.0307 µM (active),0.0457 µM (active),0.0376 µM (active),0.0316 µM (active)
